The data set deals with ATP-binding cassette sub-family C member 2 (Rattus norvegicus, UniProt Q63120). The experiment in a line: TP_TRANSPORTER: Western in vivo, liver of SD rat. It is filed as functional, organism-based, Sprague-Dawley.
Chain of ATP-binding cassette sub-family C member 2 (Q63120 whole entry): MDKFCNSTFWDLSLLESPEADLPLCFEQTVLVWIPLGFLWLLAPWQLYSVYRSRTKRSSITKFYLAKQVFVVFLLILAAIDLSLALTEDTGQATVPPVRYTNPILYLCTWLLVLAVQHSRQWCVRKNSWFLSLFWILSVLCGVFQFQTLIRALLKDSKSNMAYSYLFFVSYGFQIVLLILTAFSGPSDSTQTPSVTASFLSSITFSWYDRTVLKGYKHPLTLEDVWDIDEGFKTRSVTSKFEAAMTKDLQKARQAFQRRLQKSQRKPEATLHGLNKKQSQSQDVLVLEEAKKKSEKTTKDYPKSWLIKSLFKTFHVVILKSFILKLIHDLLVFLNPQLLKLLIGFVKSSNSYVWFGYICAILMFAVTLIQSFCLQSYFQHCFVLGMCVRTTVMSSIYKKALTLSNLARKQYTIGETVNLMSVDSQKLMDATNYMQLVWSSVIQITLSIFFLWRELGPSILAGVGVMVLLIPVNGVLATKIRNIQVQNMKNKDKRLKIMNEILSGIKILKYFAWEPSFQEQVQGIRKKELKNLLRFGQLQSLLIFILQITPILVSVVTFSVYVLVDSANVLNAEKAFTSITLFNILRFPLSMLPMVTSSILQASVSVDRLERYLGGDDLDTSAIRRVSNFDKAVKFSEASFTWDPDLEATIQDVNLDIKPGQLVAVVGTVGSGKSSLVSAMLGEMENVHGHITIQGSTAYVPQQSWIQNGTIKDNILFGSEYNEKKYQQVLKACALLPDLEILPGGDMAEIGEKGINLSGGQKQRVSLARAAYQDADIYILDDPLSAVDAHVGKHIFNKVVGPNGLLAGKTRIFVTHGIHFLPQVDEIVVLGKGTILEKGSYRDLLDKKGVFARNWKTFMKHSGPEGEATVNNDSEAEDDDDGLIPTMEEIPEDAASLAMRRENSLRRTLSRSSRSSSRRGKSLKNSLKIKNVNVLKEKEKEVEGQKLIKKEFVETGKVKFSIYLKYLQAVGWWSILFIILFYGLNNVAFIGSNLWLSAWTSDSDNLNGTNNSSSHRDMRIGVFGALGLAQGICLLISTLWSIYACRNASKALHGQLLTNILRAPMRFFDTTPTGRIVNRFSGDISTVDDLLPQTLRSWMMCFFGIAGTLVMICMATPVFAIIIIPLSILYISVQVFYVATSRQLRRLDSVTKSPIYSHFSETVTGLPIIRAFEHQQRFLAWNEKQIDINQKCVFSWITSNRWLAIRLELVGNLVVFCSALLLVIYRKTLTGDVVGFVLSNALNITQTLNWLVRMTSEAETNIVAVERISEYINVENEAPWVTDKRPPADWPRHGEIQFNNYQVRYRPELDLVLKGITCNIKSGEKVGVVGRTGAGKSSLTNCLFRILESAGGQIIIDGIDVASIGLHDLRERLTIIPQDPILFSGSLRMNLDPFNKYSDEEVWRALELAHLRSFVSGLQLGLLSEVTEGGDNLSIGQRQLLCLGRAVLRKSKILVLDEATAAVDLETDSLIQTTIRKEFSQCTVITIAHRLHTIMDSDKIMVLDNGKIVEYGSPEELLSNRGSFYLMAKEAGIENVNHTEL

`CC(=O)S[C@@H]1CC2=CC(=O)CC[C@]2(C)[C@H]2CC[C@@]3(C)[C@@H](CC[C@@]34CCC(=O)O4)[C@H]12` [SPIRONOLACTONE]: the Activity entry is “inducer [+]”.
As to `CCOc1ccc2c(c1)C(C)=CC(C)(C)N2` [E324], the Activity result is “inducer [+]”.

The record behind these values is ChEMBL document CHEMBL2074481, “Regulation of rat multidrug resistance protein 2 by classes of prototypical microsomal enzyme inducers that activate distinct transcription pathways” (Toxicol Sci, 2002).
